# Laboratory results: PubChem BioAssay AID720588 (Broad Institute, 2013)
# Activity calls are given as the source filed them.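 Rule for the calls: active = fitted curve falls past a set limit of signal loss at no more than twice the top dose; inconclusive = flat fit between 30 and 70% signal loss, or poor fit; inactive = signal rise, flat within 30%, or crossing too high.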
# Test: HEK293T cell cytotoxicity, dose response, cytotoxicity control, CellTiter-Glo luminescence, cherry-pick, set 3 (AID 720588)
# Details: HEK293T viability, CellTiter-Glo ATP luminescence, 72 h; at 21 µM (top of the series)
row,SMILES,"activity change, negative = cytotoxicity"
1,C[C@H](CO)N1C[C@H](C)[C@H](CN(C)CC2CCCCC2)Oc2ccc(NC(=O)CCCCCC(=O)Nc3ccccc3N)cc2CC1=O,5.04% (inactive)
2,COc1ccc(CN(C)C[C@H]2Oc3ccc(NC(=O)CCCCCC(=O)Nc4ccccc4N)cc3CC(=O)N([C@H](C)CO)C[C@H]2C)cc1,-29.4% (inactive)

# Same assay, conditions: HEK293T viability, CellTiter-Glo ATP luminescence, 72 h; at 23.5 µM (top of the series)
row,SMILES,"activity change, negative = cytotoxicity"
1,COC(=O)C[C@@H]1CC[C@@H]2[C@@H](COc3ccc(NC(=O)Nc4ccccc4C)cc3C(=O)N2C)O1,19.2% (inactive)
2,COC(=O)C[C@@H]1CC[C@@H]2[C@H](COc3ccc(NC(=O)c4cccc(Cl)c4)cc3C(=O)N2C)O1,-19.6% (inactive)

# Same assay, conditions: HEK293T viability, CellTiter-Glo ATP luminescence, 72 h; at 26 µM (top of the series)
row,SMILES,"activity change, negative = cytotoxicity"
1,CCOc1ccc(N=C2C(=O)Nc3ccc(C)c(Br)c32)cc1,-10.6% (inactive)
2,Cc1cc(-c2nc3ccccc3s2)ccc1N,-28% (inactive)
3,Cc1ccsc1/C=N/Nc1ccc(C(=O)O)cc1,-12.7% (inactive)
4,COc1cc(OC)cc(-c2cc3nc(C)c(CCC(=O)NCc4ccccc4)c(C)n3n2)c1,-4.7% (inactive)
5,COC(=O)C[C@@H]1CC[C@@H]2[C@H](COc3ccc(NC(=O)c4ccc(F)cc4)cc3C(=O)N2C)O1,76.4% (inactive)
6,C/C(=N\N(c1ccccc1)c1ccccc1)c1ccco1,-14.9% (inactive)
7,N#CC1=C(N)Oc2cc(N)ccc2C1c1cccc(Br)c1 (stereo not given),-22.2% (inactive)
8,C[C@H]1CN([C@@H](C)CO)C(=O)Cc2cc(NC(=O)C3CC3)ccc2O[C@H]1CN(C)S(=O)(=O)c1ccc(Cl)cc1,-9.99% (inactive)
9,O=C(COC(=O)c1ccc[nH]c1=O)Nc1ccc(N2CCCCC2)cc1,-10.3% (inactive)
10,COc1cc(/C=C/C(=O)/C=C(O)/C=C/c2ccc(O)c(OC)c2)ccc1O,-35.9% (inactive)
11,COc1cc(/C=N/NS(=O)(=O)c2ccc(C)cc2)ccc1OCc1cccc(C(=O)O)c1,5.87% (inactive)
12,COc1ccc(C2c3cc4c(cc3OC(NNC(N)=O)C2C)OCO4)cc1 (stereo not given),-16.2% (inactive)
13,COc1ccc(/C=C2\Oc3ccccc3C2=O)cc1,7.88% (inactive)
14,Nc1ncn([C@@H]2O[C@H](CO)[C@@H](O)[C@H]2O)c(=O)n1,4.13% (inactive)
15,C=CCOc1ccccc1C(=O)/C=C1/C(=O)Nc2ccccc21,-8.17% (inactive)
16,O=C1CCC2S/C(=C/Nc3ccc(C(F)(F)F)cc3)C(=O)N12 (stereo not given),-9.48% (inactive)
17,COc1ccccc1N(/N=C1\Sc2ccccc2C1=O)C(C)=O,-23.6% (inactive)
18,O=C(CCCCl)Nc1nc(-c2ccc3c(c2)OCCO3)cs1,13.6% (inactive)
19,CCc1ccc(Cn2ncc3c(C(=O)O)cc(C)nc32)cc1,-2.66% (inactive)
20,O=c1[nH]c(/C=C2\C=Nc3ccccc32)c(O)n1Cc1ccccc1F,-17.6% (inactive)
21,c1ccc(-c2ccc([C@H]3[C@H]4CNC[C@@H]3N4Cc3cc(-c4ccccc4)on3)cc2)cc1,26.6% (inactive)
22,COc1ccc(N=C2C(=O)Nc3ccc(C)c(Br)c32)cc1,-21.9% (inactive)
23,C[C@@H]1CN([C@@H](C)CO)C(=O)c2cc(NS(=O)(=O)c3ccccc3)ccc2O[C@@H]1CN(C)Cc1ccc(C(=O)Nc2ccccc2N)cc1,-19.2% (inactive)
24,Cc1c(-c2nc(-c3ccc(C(C)(C)C)cc3)no2)n(C)oc1=O,-15.2% (inactive)

row,SMILES,"activity change, negative = cytotoxicity"
1,Cc1ccc(Cl)cc1NC(=O)Cn1cc(C(F)(F)F)cc(Cl)c1=O,0.88% (inactive)
2,S=C(NCCN1CCOCC1)Nc1ccccc1Cl,-17.7% (inactive)
3,Cc1cc(C(=O)CN2C(=O)c3ccccc3S2(=O)=O)c(C)n1C(C)C,15.7% (inactive)
4,Cc1ccc(S(=O)(=O)Nc2ccc3c(c2)C(=O)N([C@H](C)CO)C[C@@H](C)[C@@H](CN(C)Cc2ccc(C(=O)Nc4ccccc4N)cc2)O3)cc1,-2.74% (inactive)
5,CN(C)[C@@H]1CCC[C@@H]1OC(=O)C(c1ccccc1)c1ccccc1,-11.6% (inactive)
6,COc1cc2c(cc1NC(=O)CN(C)Cc1ccc(OC)c(OC)c1)oc1ccccc12,-19.9% (inactive)
7,O=C(CCCN1C(=O)/C(=C/c2ccccc2Cl)SC1=S)NNC(=O)c1ccc(Cl)cc1Cl,12.7% (inactive)
8,C[C@H](CO)N1C[C@H](C)[C@H](CN(C)CC2CCCCC2)Oc2ccc(NC(=O)Nc3cccc4ccccc34)cc2C1=O,-16.8% (inactive)
9,O=C(Nc1ccc(OC(=O)N2CCCCC2)cc1)N1CCOCC1,-2.87% (inactive)
10,COC(=O)c1cccc(NC(=O)NC(=O)c2ccccc2Cl)c1,-19% (inactive)
11,COC(=O)C[C@@H]1CC[C@@H]2[C@H](COc3ccc(NC(=O)c4ccc(F)c(F)c4)cc3C(=O)N2C)O1,16.7% (inactive)
12,COc1ccc(C(C)(O)c2nc(-c3cccc(F)c3)cs2)cc1 (stereo not given),-24.1% (inactive)
13,CC(=NNc1ccc2ccccc2n1)c1ccccc1O,-9.29% (inactive)
14,O=C(C[C@@H]1CC[C@@H]2[C@H](COC[C@@H](O)CN2S(=O)(=O)c2ccc(F)cc2)O1)NCc1ccc(Cl)c(Cl)c1,2.6% (inactive)
15,C(=C\c1ccc(C2[C@H]3CNC[C@@H]2N3Cc2ccccn2)cc1)/c1ccccc1 (stereo not given in full),39.5% (inactive)
16,COc1ccc(C(=O)CN2C(=O)c3ccccc3S2(=O)=O)cc1,-13.5% (inactive)
17,CCc1c(C(=O)NN2C(=O)C3CCCCC3C2=O)csc1C (stereo not given),-15.1% (inactive)
18,CN(C)c1ccc(/C=N/Nc2nc3ccccc3o2)cc1,-21.5% (inactive)
19,C[C@H]1CN([C@@H](C)CO)C(=O)Cc2cc(NC(=O)CCCCCC(=O)Nc3ccccc3N)ccc2O[C@H]1CN(C)Cc1ccc(Oc2ccccc2)cc1,-3.08% (inactive)
20,COCCOC(=O)N1C(=O)[C@@]2(c3cc(C#CCC(C(=O)OC)C(=O)OC)ccc31)[C@H](c1ccccc1OCCO)N1[C@H](c3ccccc3)[C@H](c3ccccc3)OC(=O)[C@H]1[C@@H]2C(=O)N1CCN(c2ncccn2)CC1,28.9% (inactive)
21,O=C1c2ccc3c4c(ccc(c24)C(=O)N1c1cccc(O)c1)C(=O)N(c1cccc(O)c1)C3=O,7.85% (inactive)
22,COc1ccc(C(CCNCc2ccc(OC(C)C)cc2)C(C)C)cc1 (stereo not given),-12.5% (inactive)
23,O=C(O)c1ccccc1C(=O)Nc1ccc(Oc2cccc3ccccc23)cc1,-24.2% (inactive)
24,COC(=O)[C@H]1[C@H](CO)[C@H]2Cn3c(ccc(-c4ccccc4F)c3=O)[C@@H]1N2CC1CCCC1,56.8% (inactive)

row,SMILES,"activity change, negative = cytotoxicity"
1,CC(C)CN(C(=O)CN1CCOCC1)c1c(N)n(CC(C)C)c(=O)[nH]c1=O,6.36% (inactive)
2,Cc1cc(C(=O)Nc2ccc3c(c2)C(=O)N(C)[C@@H]2CC[C@H](CC(=O)N[C@H](C)c4ccccc4)O[C@H]2CO3)no1,8.37% (inactive)
3,Cc1noc(C)c1NC(=O)Nc1ccc2c(c1)CC(=O)N([C@@H](C)CO)C[C@@H](C)[C@@H](CN(C)Cc1ccc(Cl)c(Cl)c1)O2,61.4% (inactive)
4,C[C@@H]1CN([C@H](C)CO)C(=O)Cc2cc(N(C)C)ccc2O[C@H]1CN(C)Cc1ccc(C(=O)Nc2ccccc2N)cc1,-25.9% (inactive)
5,CC(C)(C)c1ccc(Cn2c(=O)cnc3ccccc32)cc1,-33.1% (inactive)
6,O=C(C1CC1)N1C[C@@H]2N[C@H](C1)C2c1ccc(/C=C/c2ccccc2)cc1 (stereo not given in full),-31.7% (inactive)
7,CCN1C/C(=C/c2ccc(OC)c(O)c2)C(=O)/C(=C/c2ccc(OC)c(O)c2)C1,-23.5% (inactive)
8,O=C1NC2C(=CC(O)C(O)C2O)c2cc3c(cc21)OCO3 (stereo not given),-41.4% (inactive)
9,COC(=O)C[C@H]1C=C[C@@H](NC(=O)Nc2ccc(C(F)(F)F)cc2)[C@H](CO)O1,4.22% (inactive)
10,O=C(O)c1cccc(N/N=C/c2ccc(OC(F)(F)F)cc2)c1,11.3% (inactive)
11,CC(=O)Nc1cccc(-c2ccnc3c2CC(C)(C(=O)NCc2ccc(N(C)C)cc2)O3)c1 (stereo not given),-10.9% (inactive)
12,CC(C)Oc1ccc(Br)cc1C(=O)N/N=C/c1c[nH]c2ccccc12,-16.4% (inactive)
13,Cc1ccccc1N=Nc1c(O)n(C)c2ccccc12,2.96% (inactive)
14,COc1cc(C(=O)N2CCC(N3CCN(C)CC3)CC2)ccc1Nc1ncc2c(n1)N(C)c1ccccc1C(=O)N2C,-1.13% (inactive)
15,Nc1ccc2oc(-c3cc(Br)ccc3Cl)nc2c1,19.3% (inactive)
16,N#CC1=C(N)Oc2cc(N)ccc2C1c1cccc(F)c1 (stereo not given),-13.6% (inactive)
17,CC(=O)c1ccc(NC(=O)c2noc3c2CCC3)cc1,-5.3% (inactive)
18,COc1ccc(C2=NNC(=Nc3cc(S(=O)(=O)N(C)C)ccc3C)SC2)c(OC)c1,-17.5% (inactive)
19,C[C@@H]1CN([C@H](C)CO)C(=O)CCCn2nncc2CO[C@H]1CN(C)Cc1ccc(Oc2ccccc2)cc1,-3.49% (inactive)
20,CN(C)C(=S)N=Nc1[nH]c2ccccc2c1O,7.38% (inactive)
21,N#C[C@@H]1[C@H](c2ccc(C#Cc3cccc(F)c3)cc2)[C@@H](CO)N1C(=O)C1CCCC1,38% (inactive)
22,COc1cc(/C=N/NC(=O)c2csc3c2CCCC3)cc(OC)c1O,0.867% (inactive)
23,Oc1c(Cl)cc(Cl)c2cccnc12,-45.5% (inactive)
